Values belong to the molecule of their own block, whether it stands above or below them.
Legend:
[1] = molecular target: T1, Hepatocyte nuclear factor 4-alpha (Homo sapiens) (UniProt P41235); assay: Selectivity interaction (Reporter gene assay) EUB0000571a HNF4A; set-up: recommended concentration 1 uM
T1 sequence (whole entry): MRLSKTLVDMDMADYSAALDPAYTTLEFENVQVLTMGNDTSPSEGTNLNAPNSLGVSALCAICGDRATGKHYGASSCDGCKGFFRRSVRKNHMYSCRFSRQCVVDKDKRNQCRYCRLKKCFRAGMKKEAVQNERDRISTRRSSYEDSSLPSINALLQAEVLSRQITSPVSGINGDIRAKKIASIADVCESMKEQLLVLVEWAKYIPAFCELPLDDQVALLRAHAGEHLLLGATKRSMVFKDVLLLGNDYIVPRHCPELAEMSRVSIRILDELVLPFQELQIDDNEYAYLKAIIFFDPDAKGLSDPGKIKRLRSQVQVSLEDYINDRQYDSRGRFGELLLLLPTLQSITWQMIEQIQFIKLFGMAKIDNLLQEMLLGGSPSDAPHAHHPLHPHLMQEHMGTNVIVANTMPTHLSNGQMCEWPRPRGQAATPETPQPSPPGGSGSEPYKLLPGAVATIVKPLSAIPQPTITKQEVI

[2] = molecular target: T2, Nuclear receptor subfamily 2 group C member 1 (Homo sapiens) (UniProt P13056); assay: Selectivity interaction (Reporter gene assay) EUB0000571a NR2C1; set-up: recommended concentration 1 uM
T2 sequence (whole entry): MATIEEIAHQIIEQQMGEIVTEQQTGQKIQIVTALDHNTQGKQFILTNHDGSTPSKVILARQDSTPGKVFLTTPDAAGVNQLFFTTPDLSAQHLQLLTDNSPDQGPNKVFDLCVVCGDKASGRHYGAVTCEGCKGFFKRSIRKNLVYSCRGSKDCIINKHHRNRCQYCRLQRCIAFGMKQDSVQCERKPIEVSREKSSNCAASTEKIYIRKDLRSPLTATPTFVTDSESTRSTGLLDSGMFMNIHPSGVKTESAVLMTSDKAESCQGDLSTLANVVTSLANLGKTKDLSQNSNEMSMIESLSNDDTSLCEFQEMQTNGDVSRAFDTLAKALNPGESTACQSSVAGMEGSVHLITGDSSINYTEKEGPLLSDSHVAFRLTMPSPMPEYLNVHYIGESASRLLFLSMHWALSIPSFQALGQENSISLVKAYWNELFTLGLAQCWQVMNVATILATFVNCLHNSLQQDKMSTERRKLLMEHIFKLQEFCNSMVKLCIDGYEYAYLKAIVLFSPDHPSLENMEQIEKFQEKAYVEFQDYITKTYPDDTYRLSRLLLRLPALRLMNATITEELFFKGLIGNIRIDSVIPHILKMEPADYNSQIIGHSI

[3] = molecular target: Nuclear receptor subfamily 2 group E member 1 (Homo sapiens) (UniProt Q9Y466); assay: Selectivity interaction (Reporter gene assay) EUB0000571a NR2E1; set-up: recommended concentration 1 uM
[4] = molecular target: Nuclear receptor subfamily 4immunitygroup A member 1 (Homo sapiens) (UniProt P22736); assay: Selectivity interaction (Reporter gene assay) EUB0000571a NR4A1; set-up: recommended concentration 1 uM
[5] = molecular target: Steroidogenic factor 1 (Homo sapiens) (UniProt Q13285); assay: Selectivity interaction (Reporter gene assay) EUB0000571a NR5A1; set-up: recommended concentration 1 uM
[6] = molecular target: T3, Alpha trans-inducing protein (Human alphaherpesvirus 1) (UniProt A0A5J6DW59); assay: Selectivity interaction (Reporter gene assay) EUB0000571a UL48; set-up: recommended concentration 1 uM
[7] = molecular target: T4, Retinoic acid receptor RXR-alpha (Homo sapiens) (UniProt P19793); assay: Selectivity interaction (Reporter gene assay) EUB0000571a RXRA; set-up: recommended concentration 1 uM; details: reference bexarotene 1 uM, Selectivity number of off-targets 0.0, Selectivity number of targets 1.0, Source Knowledge inhouse
T4 sequence (whole entry): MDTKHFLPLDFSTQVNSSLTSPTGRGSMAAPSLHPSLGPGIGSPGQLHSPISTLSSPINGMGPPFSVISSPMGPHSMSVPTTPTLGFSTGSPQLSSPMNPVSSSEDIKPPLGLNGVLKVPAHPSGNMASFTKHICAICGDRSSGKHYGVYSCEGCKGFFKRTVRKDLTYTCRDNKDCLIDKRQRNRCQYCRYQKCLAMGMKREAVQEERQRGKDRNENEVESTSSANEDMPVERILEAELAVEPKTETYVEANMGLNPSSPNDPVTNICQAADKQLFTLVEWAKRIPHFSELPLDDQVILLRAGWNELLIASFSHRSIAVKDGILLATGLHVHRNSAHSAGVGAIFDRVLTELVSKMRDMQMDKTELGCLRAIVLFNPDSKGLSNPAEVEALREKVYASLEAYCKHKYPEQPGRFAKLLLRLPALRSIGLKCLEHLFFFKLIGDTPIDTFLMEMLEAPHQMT

[8] = molecular target: T1, Hepatocyte nuclear factor 4-alpha (Homo sapiens); assay: Selectivity interaction (Reporter gene assay) EUB0000582a HNF4A; set-up: recommended concentration 1 uM
[9] = molecular target: T2, Nuclear receptor subfamily 2 group C member 1 (Homo sapiens); assay: Selectivity interaction (Reporter gene assay) EUB0000582a NR2C1; set-up: recommended concentration 1 uM
[10] = molecular target: Nuclear receptor subfamily 2 group E member 1 (Homo sapiens) (UniProt Q9Y466); assay: Selectivity interaction (Reporter gene assay) EUB0000582a NR2E1; set-up: recommended concentration 1 uM
[11] = molecular target: Nuclear receptor subfamily 4immunitygroup A member 1 (Homo sapiens) (UniProt P22736); assay: Selectivity interaction (Reporter gene assay) EUB0000582a NR4A1; set-up: recommended concentration 1 uM
[12] = molecular target: Steroidogenic factor 1 (Homo sapiens) (UniProt Q13285); assay: Selectivity interaction (Reporter gene assay) EUB0000582a NR5A1; set-up: recommended concentration 1 uM
[13] = molecular target: T3, Alpha trans-inducing protein (Human alphaherpesvirus 1); assay: Selectivity interaction (Reporter gene assay) EUB0000582a UL48; set-up: recommended concentration 1 uM
[14] = molecular target: T4, Retinoic acid receptor RXR-alpha (Homo sapiens); assay: Selectivity interaction (Reporter gene assay) EUB0000582a RXRA; set-up: recommended concentration 1 uM; details: reference bexarotene 1 uM, Selectivity number of off-targets 0.0, Selectivity number of targets 1.0, Source Knowledge inhouse
[15] = molecular target: T1, Hepatocyte nuclear factor 4-alpha (Homo sapiens); assay: Selectivity interaction (Reporter gene assay) EUB0000572aCl HNF4A; set-up: recommended concentration 3 uM
[16] = molecular target: T2, Nuclear receptor subfamily 2 group C member 1 (Homo sapiens); assay: Selectivity interaction (Reporter gene assay) EUB0000572aCl NR2C1; set-up: recommended concentration 3 uM; details: screened at recom. conc., Selectivity number of off-targets 2.0, Selectivity number of targets 5.0, Source Knowledge inhouse
[17] = molecular target: Nuclear receptor subfamily 2 group E member 1 (Homo sapiens) (UniProt Q9Y466); assay: Selectivity interaction (Reporter gene assay) EUB0000572aCl NR2E1; set-up: recommended concentration 3 uM; details: screened at recom. conc., Selectivity number of off-targets 2.0, Selectivity number of targets 5.0, Source Knowledge inhouse
[18] = molecular target: Nuclear receptor subfamily 4immunitygroup A member 1 (Homo sapiens) (UniProt P22736); assay: Selectivity interaction (Reporter gene assay) EUB0000572aCl NR4A1; set-up: recommended concentration 3 uM
[19] = molecular target: Steroidogenic factor 1 (Homo sapiens) (UniProt Q13285); assay: Selectivity interaction (Reporter gene assay) EUB0000572aCl NR5A1; set-up: recommended concentration 3 uM
[20] = molecular target: T3, Alpha trans-inducing protein (Human alphaherpesvirus 1); assay: Selectivity interaction (Reporter gene assay) EUB0000572aCl UL48; set-up: recommended concentration 3 uM
[21] = molecular target: T4, Retinoic acid receptor RXR-alpha (Homo sapiens); assay: Selectivity interaction (Reporter gene assay) EUB0000572aCl RXRA; set-up: recommended concentration 3 uM; details: reference bexarotene 1 uM, Selectivity number of off-targets 0.0, Selectivity number of targets 1.0, Source Knowledge inhouse
[22] = molecular target: T5, Peroxisome proliferator-activated receptor gamma (Homo sapiens) (UniProt P37231); assay: Selectivity interaction (Reporter gene assay) EUB0000581a PPARG; set-up: recommended concentration 1 uM; details: screened at recom. conc., Selectivity number of off-targets 1.0, Selectivity number of targets 19.0, Source Knowledge inhouse
T5 sequence (whole entry): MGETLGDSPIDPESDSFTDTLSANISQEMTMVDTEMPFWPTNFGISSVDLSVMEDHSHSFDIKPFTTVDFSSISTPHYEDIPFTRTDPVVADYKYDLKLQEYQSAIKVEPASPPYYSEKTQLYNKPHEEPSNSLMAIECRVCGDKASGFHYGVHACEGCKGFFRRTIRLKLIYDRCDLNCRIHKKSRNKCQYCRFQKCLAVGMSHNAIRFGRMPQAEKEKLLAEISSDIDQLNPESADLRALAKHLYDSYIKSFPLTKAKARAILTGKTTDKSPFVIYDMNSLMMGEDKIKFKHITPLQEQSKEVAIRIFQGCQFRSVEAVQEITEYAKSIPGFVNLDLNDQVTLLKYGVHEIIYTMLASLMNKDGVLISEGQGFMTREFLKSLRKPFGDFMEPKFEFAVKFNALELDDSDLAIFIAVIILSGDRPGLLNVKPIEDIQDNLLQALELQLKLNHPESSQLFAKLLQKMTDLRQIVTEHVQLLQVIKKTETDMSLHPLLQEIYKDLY

[23] = molecular target: T1, Hepatocyte nuclear factor 4-alpha (Homo sapiens); assay: Selectivity interaction (Reporter gene assay) EUB0000581a HNF4A; set-up: recommended concentration 1 uM
[24] = molecular target: T2, Nuclear receptor subfamily 2 group C member 1 (Homo sapiens); assay: Selectivity interaction (Reporter gene assay) EUB0000581a NR2C1; set-up: recommended concentration 1 uM
[25] = molecular target: Nuclear receptor subfamily 2 group E member 1 (Homo sapiens) (UniProt Q9Y466); assay: Selectivity interaction (Reporter gene assay) EUB0000581a NR2E1; set-up: recommended concentration 1 uM
[26] = molecular target: Nuclear receptor subfamily 4immunitygroup A member 1 (Homo sapiens) (UniProt P22736); assay: Selectivity interaction (Reporter gene assay) EUB0000581a NR4A1; set-up: recommended concentration 1 uM
[27] = molecular target: Steroidogenic factor 1 (Homo sapiens) (UniProt Q13285); assay: Selectivity interaction (Reporter gene assay) EUB0000581a NR5A1; set-up: recommended concentration 1 uM
[28] = molecular target: T3, Alpha trans-inducing protein (Human alphaherpesvirus 1); assay: Selectivity interaction (Reporter gene assay) EUB0000581a UL48; set-up: recommended concentration 1 uM
[29] = molecular target: T4, Retinoic acid receptor RXR-alpha (Homo sapiens); assay: Selectivity interaction (Reporter gene assay) EUB0000581a RXRA; set-up: recommended concentration 1 uM; details: reference bexarotene 1 uM, Selectivity number of off-targets 0.0, Selectivity number of targets 1.0, Source Knowledge inhouse

Sequence of Nuclear receptor subfamily 4immunitygroup A member 1 (Homo sapiens) (P22736 whole entry): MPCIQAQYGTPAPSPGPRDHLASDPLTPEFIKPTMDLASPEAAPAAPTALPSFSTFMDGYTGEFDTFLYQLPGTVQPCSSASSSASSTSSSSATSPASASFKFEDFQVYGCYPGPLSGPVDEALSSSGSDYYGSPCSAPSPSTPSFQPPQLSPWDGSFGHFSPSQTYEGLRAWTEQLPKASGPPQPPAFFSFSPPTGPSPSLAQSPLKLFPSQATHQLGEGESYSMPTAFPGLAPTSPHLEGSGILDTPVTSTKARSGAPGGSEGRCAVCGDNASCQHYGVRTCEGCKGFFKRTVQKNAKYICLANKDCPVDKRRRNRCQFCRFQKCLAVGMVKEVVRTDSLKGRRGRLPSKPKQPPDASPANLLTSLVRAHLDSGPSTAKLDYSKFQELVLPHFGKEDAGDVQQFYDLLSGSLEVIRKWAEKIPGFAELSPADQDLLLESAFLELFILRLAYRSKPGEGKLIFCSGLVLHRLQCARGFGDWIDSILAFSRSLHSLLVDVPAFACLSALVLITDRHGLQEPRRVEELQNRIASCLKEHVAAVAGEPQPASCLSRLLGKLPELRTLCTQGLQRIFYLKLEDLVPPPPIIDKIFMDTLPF
Sequence of Steroidogenic factor 1 (Homo sapiens) (Q13285 whole entry): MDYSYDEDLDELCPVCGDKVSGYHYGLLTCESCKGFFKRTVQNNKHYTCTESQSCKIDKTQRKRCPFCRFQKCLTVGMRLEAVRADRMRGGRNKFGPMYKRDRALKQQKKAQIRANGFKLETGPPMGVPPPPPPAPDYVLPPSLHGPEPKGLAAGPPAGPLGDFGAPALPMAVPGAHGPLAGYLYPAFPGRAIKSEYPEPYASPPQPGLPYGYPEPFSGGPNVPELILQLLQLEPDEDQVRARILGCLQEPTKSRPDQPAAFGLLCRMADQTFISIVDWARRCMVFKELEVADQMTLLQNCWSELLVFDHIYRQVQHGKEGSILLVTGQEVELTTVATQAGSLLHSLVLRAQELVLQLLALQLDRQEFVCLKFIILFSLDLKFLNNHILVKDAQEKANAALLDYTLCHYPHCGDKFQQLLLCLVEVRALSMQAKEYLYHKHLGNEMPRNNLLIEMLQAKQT
Sequence of Nuclear receptor subfamily 2 group E member 1 (Homo sapiens) (Q9Y466 whole entry): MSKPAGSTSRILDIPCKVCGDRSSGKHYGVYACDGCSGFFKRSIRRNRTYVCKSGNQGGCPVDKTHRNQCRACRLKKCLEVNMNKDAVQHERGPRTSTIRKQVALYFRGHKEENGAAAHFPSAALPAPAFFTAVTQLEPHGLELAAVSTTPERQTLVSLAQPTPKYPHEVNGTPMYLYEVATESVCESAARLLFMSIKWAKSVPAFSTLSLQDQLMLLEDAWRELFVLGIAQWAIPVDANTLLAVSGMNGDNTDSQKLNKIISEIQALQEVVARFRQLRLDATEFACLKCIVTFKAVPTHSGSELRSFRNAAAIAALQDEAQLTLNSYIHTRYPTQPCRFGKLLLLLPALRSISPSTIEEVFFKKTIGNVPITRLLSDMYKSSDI
T3 sequence (A0A5J6DW59 as listed by the source): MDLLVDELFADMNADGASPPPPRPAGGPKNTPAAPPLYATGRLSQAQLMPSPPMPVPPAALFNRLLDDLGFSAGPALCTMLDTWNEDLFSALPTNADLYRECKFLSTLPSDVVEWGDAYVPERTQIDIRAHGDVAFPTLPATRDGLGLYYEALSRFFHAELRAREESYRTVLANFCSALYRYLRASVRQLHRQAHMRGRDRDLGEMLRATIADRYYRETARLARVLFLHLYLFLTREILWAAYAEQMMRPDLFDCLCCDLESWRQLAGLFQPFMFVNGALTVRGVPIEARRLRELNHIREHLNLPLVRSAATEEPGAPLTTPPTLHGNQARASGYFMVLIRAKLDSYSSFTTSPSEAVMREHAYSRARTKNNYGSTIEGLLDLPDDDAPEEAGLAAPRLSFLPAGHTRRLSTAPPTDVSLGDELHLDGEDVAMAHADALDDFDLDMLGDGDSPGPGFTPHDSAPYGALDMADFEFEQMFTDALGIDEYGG

- Fold activation [1]: 1.06
- Fold activation [2]: 1.38
- Remaining activity [3]: 0.849
- Remaining activity [4]: 0.966
- Fold activation [5]: 1.22
- P-value [6]: 0.0005
- Relative activation [7]: 0.67%
Compound: COC(=O)C(Cc1ccc(OCCn2c(=O)sc3cc(C(=O)c4ccccc4)ccc32)cc1)C(=O)OC

- Fold activation [8]: 1.08
- Fold activation [9]: 1.62
- Fold activation [10]: 0.996
- Fold activation [11]: 1.19
- Fold activation [12]: 1.27
- P-value [13]: 0.000219
- Relative activation [14]: 0.643%
Compound: C=C1/C(=C\C=C2/CCC[C@]3(C)[C@@H]([C@H](C)/C=C/C=C/C(O)(CC)CC)CC[C@@H]23)C[C@@H](O)C[C@@H]1O

- Fold activation [15]: 1.18
- Fold activation [16]: 1.98
- Fold activation [17]: 1.82
- Fold activation [18]: 1.4
- Fold activation [19]: 1.13
- P-value [20]: 2.13e-05
- Relative activation [21]: 0.674%
Compound: O=C(O)Cc1cccc(OCCCN(Cc2cccc(C(F)(F)F)c2Cl)CC(c2ccccc2)c2ccccc2)c1

- Fold activation [22]: 3.39
- Fold activation [23]: 1.11
- Fold activation [24]: 1.13
- Remaining activity [25]: 0.846
- Fold activation [26]: 1.08
- Fold activation [27]: 1.08
- P-value [28]: 0.0017
- Relative activation [29]: 0.86%
Compound: CC(C)c1ccc(CC(=O)N2CCC[C@@H](c3cccc(OC(C)(C)C(=O)O)c3)C2)cc1

— ChEMBL document CHEMBL5715260, “Selectivity Literature for EUbOPEN Chemogenomic Library” (2024)
